Source: paper PMC7576618 (British Journal of Clinical Pharmacology, 2020)

Assays:
[1] = tested on: healthy subjects; test: MAD study: safety and tolerability; assay type: in vivo, human
[2] = monkeys; cited from earlier work
[3] = tested on: healthy subjects; test: SAD study: safety and tolerability; assay type: in vivo, human
[4] = MAD Cohort 1, 5–10 mg fed (n = 8)
[5] = MAD Cohort 2, 5–20 mg fed (n = 8)
[6] = MAD Cohort 3, 5–40 mg fed (n = 8)
[7] = MAD Cohort 4, 5–60 mg fed (n = 8)
[8] = MAD Cohort 5, 10–80 mg fed (n = 8)
[9] = MAD Cohort 6, 10–80 mg fed (n = 7)
[10] = MAD, 80 mg MP in Cohort 5, data not shown
[11] = SAD Parts A and C, fasted conditions (total TS‐134)
[12] = SAD Parts A and C, fed conditions (total TS‐134)
[13] = SAD Parts A and C, 5 mg fasted (n = 6)
[14] = SAD Parts A and C, 10 mg fasted (n = 6)
[15] = SAD Parts A and C, 10 mg fed (n = 5)
[16] = SAD Parts A and C, 20 mg fasted (n = 7)
[17] = SAD Parts A and C, 20 mg fed (n = 3)
[18] = SAD Parts A and C, Total TS‐134 fasted (n = 19)
[19] = SAD Parts A and C, Total TS‐134 fed (n = 8)
[20] = SAD, 20 mg fasted treatment group

## CC(C)[C@@H]1CC[C@@H](C)C[C@H]1OC(=O)O[C@@H](C)OC(=O)[C@H]1[C@@H]2C[C@H](F)[C@@](N)(C(=O)O)[C@@H]21.O=S(=O)(O)c1ccccc1 [TS‐134, (1S,2S,3S,5R,6S)‐2‐amino‐3‐ fluoro‐6‐({(1S)‐1‐[({[(1R,2S,5R)‐5‐methyl‐2‐(propan‐2‐yl)cyclohexyl]oxy}carbonyl)oxy]ethoxy}carbonyl)bicyclo[3.1.0]hexane‐2‐carboxylic acid monobenzenesulfonate]
[1]; 14‐day MAD, titration schemes under fed conditions
  dose up to which multiple dose titration was tolerated: up to 80 mg
[1]; [4]
  Abnormal dreams: 0 Number of subjects (%)
  Dizziness: 0 Number of subjects (%)
  Headache: 1 (12.5) Number of subjects (%)
  Insomnia: 0 Number of subjects (%)
  Nausea: 2 (25.0) Number of subjects (%)
  Number of subjects with at least 1 TEAE: 5 (62.5) Number of subjects (%)
  Post lumbar puncture syndrome: 0 Number of subjects (%)
  Pruritus: 0 Number of subjects (%)
  Somnolence: 3 (37.5) Number of subjects (%)
  Total number of TEAEs: 11
  Vomiting: 0 Number of subjects (%)
[1]; [5]
  Abnormal dreams: 0 Number of subjects (%)
  Dizziness: 1 (12.5) Number of subjects (%)
  Headache: 3 (37.5) Number of subjects (%)
  Insomnia: 0 Number of subjects (%)
  Nausea: 3 (37.5) Number of subjects (%)
  Number of subjects with at least 1 TEAE: 5 (62.5) Number of subjects (%)
  Post lumbar puncture syndrome: 0 Number of subjects (%)
  Pruritus: 0 Number of subjects (%)
  Somnolence: 1 (12.5) Number of subjects (%)
  Total number of TEAEs: 17
  Vomiting: 0 Number of subjects (%)
[1]; [6]
  Abnormal dreams: 0 Number of subjects (%)
  Dizziness: 3 (37.5) Number of subjects (%)
  Headache: 3 (37.5) Number of subjects (%)
  Insomnia: 0 Number of subjects (%)
  Nausea: 2 (25.0) Number of subjects (%)
  Number of subjects with at least 1 TEAE: 5 (62.5) Number of subjects (%)
  Post lumbar puncture syndrome: 0 Number of subjects (%)
  Pruritus: 0 Number of subjects (%)
  Somnolence: 1 (12.5) Number of subjects (%)
  Total number of TEAEs: 16
  Vomiting: 1 (12.5) Number of subjects (%)
[1]; [7]
  Abnormal dreams: 2 (25.0) Number of subjects (%)
  Dizziness: 1 (12.5) Number of subjects (%)
  Headache: 5 (62.5) Number of subjects (%)
  Insomnia: 3 (37.5) Number of subjects (%)
  Nausea: 3 (37.5) Number of subjects (%)
  Number of subjects with at least 1 TEAE: 8 (100) Number of subjects (%)
  Post lumbar puncture syndrome: 0 Number of subjects (%)
  Pruritus: 1 (12.5) Number of subjects (%)
  Somnolence: 1 (12.5) Number of subjects (%)
  Total number of TEAEs: 26
  Vomiting: 2 (25.0) Number of subjects (%)
[1]; [8]
  Abnormal dreams: 0 Number of subjects (%)
  Dizziness: 0 Number of subjects (%)
  Headache: 3 (37.5) Number of subjects (%)
  Insomnia: 0 Number of subjects (%)
  Nausea: 3 (37.5) Number of subjects (%)
  Number of subjects with at least 1 TEAE: 7 (87.5) Number of subjects (%)
  Post lumbar puncture syndrome: 0 Number of subjects (%)
  Pruritus: 0 Number of subjects (%)
  Somnolence: 1 (12.5) Number of subjects (%)
  Total number of TEAEs: 30
  Vomiting: 0 Number of subjects (%)
[1]; [9]
  Abnormal dreams: 0 Number of subjects (%)
  Dizziness: 3 (42.9) Number of subjects (%)
  Headache: 1 (14.3) Number of subjects (%)
  Insomnia: 1 (14.3) Number of subjects (%)
  Nausea: 2 (28.6) Number of subjects (%)
  Number of subjects with at least 1 TEAE: 6 (85.7) Number of subjects (%)
  Post lumbar puncture syndrome: 0 Number of subjects (%)
  Pruritus: 3 (42.9) Number of subjects (%)
  Somnolence: 2 (28.6) Number of subjects (%)
  Total number of TEAEs: 25
  Vomiting: 0 Number of subjects (%)
[1]; MAD Total TS‐134 (n = 47)
  Abnormal dreams: 2 (4.3) Number of subjects (%)
  Dizziness: 8 (17.0) Number of subjects (%)
  Headache: 16 (34.0) Number of subjects (%)
  Insomnia: 4 (8.5) Number of subjects (%)
  Nausea: 15 (31.9) Number of subjects (%)
  Number of subjects with at least 1 TEAE: 36(76.6) Number of subjects (%)
  Post lumbar puncture syndrome: 0 Number of subjects (%)
  Pruritus: 4 (8.5) Number of subjects (%)
  Somnolence: 9 (19.1) Number of subjects (%)
  Total number of TEAEs: 125
  Vomiting: 3 (6.4) Number of subjects (%)
[1]; MAD study
  discontinuations due to TEAEs: no discontinuations due to TEAEs
[1]; [10]
  reports of severe anxiety: 1 report
  reports of severe fatigue: 1 report
[1]; MAD, total TS‐134 group
  incidence of dizziness: 17.0%
  incidence of headache: 34.0%
  incidence of nausea: 31.9%
  incidence of somnolence: 19.1%
  incidence of vomiting: 6.4%
[2]
  conversion of the prodrug into MGS0008 after oral administration: rapidly converted into MGS0008
[3]; SAD Part B, fed 10 mg TS‐134
  incidence of headache: 25.0%
  incidence of post lumbar puncture syndrome: 37.5%
  incidence of somnolence: 25.0%
  incidence of vomiting: 25.0%
[3]; SAD Part B, 10 mg fed (n = 8)
  Abnormal dreams: 0 Number of subjects (%)
  Dizziness: 0 Number of subjects (%)
  Headache: 2 (25.0) Number of subjects (%)
  Insomnia: 0 Number of subjects (%)
  Nausea: 0 Number of subjects (%)
  Number of subjects with at least 1 TEAE: 6 (75.0) Number of subjects (%)
  Post lumbar puncture syndrome: 3 (37.5) Number of subjects (%)
  Pruritus: 0 Number of subjects (%)
  Somnolence: 2 (25.0) Number of subjects (%)
  Total number of TEAEs: 10
  Vomiting: 2 (25.0) Number of subjects (%)
[3]; [11]
  incidence of nausea: 21.1%
  incidence of vomiting: 31.6%
[3]; [12]
  incidence of headache: 25.0%
  incidence of nausea: 25.0%
[3]; [13]
  Abnormal dreams: 0 Number of subjects (%)
  Dizziness: 0 Number of subjects (%)
  Headache: 1 (16.7) Number of subjects (%)
  Insomnia: 0 Number of subjects (%)
  Nausea: 0 Number of subjects (%)
  Number of subjects with at least 1 TEAE: 2 (33.3) Number of subjects (%)
  Post lumbar puncture syndrome: 0 Number of subjects (%)
  Pruritus: 0 Number of subjects (%)
  Somnolence: 0 Number of subjects (%)
  Total number of TEAEs: 2
  Vomiting: 0 Number of subjects (%)
[3]; [14]
  Abnormal dreams: 0 Number of subjects (%)
  Dizziness: 0 Number of subjects (%)
  Headache: 0 Number of subjects (%)
  Insomnia: 0 Number of subjects (%)
  Nausea: 1 (16.7) Number of subjects (%)
  Number of subjects with at least 1 TEAE: 4 (66.7) Number of subjects (%)
  Post lumbar puncture syndrome: 0 Number of subjects (%)
  Pruritus: 0 Number of subjects (%)
  Somnolence: 1 (16.7) Number of subjects (%)
  Total number of TEAEs: 6
  Vomiting: 2 (33.3) Number of subjects (%)
[3]; [15]
  Abnormal dreams: 0 Number of subjects (%)
  Dizziness: 0 Number of subjects (%)
  Headache: 1 (20.0) Number of subjects (%)
  Insomnia: 0 Number of subjects (%)
  Nausea: 1 (20.0) Number of subjects (%)
  Number of subjects with at least 1 TEAE: 3 (60.0) Number of subjects (%)
  Post lumbar puncture syndrome: 0 Number of subjects (%)
  Pruritus: 0 Number of subjects (%)
  Somnolence: 0 Number of subjects (%)
  Total number of TEAEs: 4
  Vomiting: 1 (20.0) Number of subjects (%)
[3]; [16]
  Abnormal dreams: 0 Number of subjects (%)
  Dizziness: 0 Number of subjects (%)
  Headache: 1 (14.3) Number of subjects (%)
  Insomnia: 0 Number of subjects (%)
  Nausea: 3 (42.9) Number of subjects (%)
  Number of subjects with at least 1 TEAE: 5 (71.4) Number of subjects (%)
  Post lumbar puncture syndrome: 0 Number of subjects (%)
  Pruritus: 0 Number of subjects (%)
  Somnolence: 0 Number of subjects (%)
  Total number of TEAEs: 11
  Vomiting: 4 (57.1) Number of subjects (%)
[3]; [17]
  Abnormal dreams: 0 Number of subjects (%)
  Dizziness: 0 Number of subjects (%)
  Headache: 1 (33.3) Number of subjects (%)
  Insomnia: 0 Number of subjects (%)
  Nausea: 1 (33.3) Number of subjects (%)
  Number of subjects with at least 1 TEAE: 1 (33.3) Number of subjects (%)
  Post lumbar puncture syndrome: 0 Number of subjects (%)
  Pruritus: 0 Number of subjects (%)
  Somnolence: 0 Number of subjects (%)
  Total number of TEAEs: 3
  Vomiting: 0 Number of subjects (%)
[3]; [18]
  Abnormal dreams: 0 Number of subjects (%)
  Dizziness: 0 Number of subjects (%)
  Headache: 2 (10.5) Number of subjects (%)
  Insomnia: 0 Number of subjects (%)
  Nausea: 4 (21.1) Number of subjects (%)
  Number of subjects with at least 1 TEAE: 11(57.9) Number of subjects (%)
  Post lumbar puncture syndrome: 0 Number of subjects (%)
  Pruritus: 0 Number of subjects (%)
  Somnolence: 1 (5.3) Number of subjects (%)
  Total number of TEAEs: 19
  Vomiting: 6 (31.6) Number of subjects (%)
[3]; [19]
  Abnormal dreams: 0 Number of subjects (%)
  Dizziness: 0 Number of subjects (%)
  Headache: 2 (25.0) Number of subjects (%)
  Insomnia: 0 Number of subjects (%)
  Nausea: 2 (25.0) Number of subjects (%)
  Number of subjects with at least 1 TEAE: 4 (50.0) Number of subjects (%)
  Post lumbar puncture syndrome: 0 Number of subjects (%)
  Pruritus: 0 Number of subjects (%)
  Somnolence: 0 Number of subjects (%)
  Total number of TEAEs: 7
  Vomiting: 1 (12.5) Number of subjects (%)
[3]; [20]
  reports of severe nausea: 1 report
  reports of severe vomiting: 2 reports
[3]; SAD, single oral dose TS‐134 solution
  dose up to which a single dose was tolerated: up to 10 mg
[3]; both studies
  deaths or serious adverse events: no deaths or serious adverse events
